This note sets out measurements from patent US20240316022A1 (TYRA BIOSCIENCES, INC., priority 2021, published 2024).

In one experiment the target is T1, FGFR3-BAIAP2L1 Ba/F3 (Homo sapiens, UniProt P22607).
T1 construct: host or cells: Ba/F3; the other entry of the earlier key: BAIAP2L1 (Q9UHR4, BAR/IMD domain-containing adapter protein 2-like 1)
Nature of the experiment: Ba/F3 cell viability assay (CellTiter-Glo 2.0). It counts as cell-based. The settings on record: Ba/F3 FGFR3-BAIAP2L1 cells, 48 hours. The source says:
(§1) Experimental Purpose: Recombinant kinase fusions are transduced into parental Ba/F3, which becomes dependent upon this constitutive kinase activity for IL3-independent survival. Inhibition of kinase activity leads to cell death, which is monitored using CellTiter-Glo® 2.0 (Promega) which measures intracellular ATP concentration that in turn serves as a marker for viability. BCR-FGFR4 Ba/F3, BCR-FGFR1 Ba/F3 and FGFR3-BAIAP2L1 Ba/F3 were obtained from Advanced Cellular Dynamics (Seattle, WA)
(§2) Cell Viability Assay Procedure: Cell Titer-Glo® 2.0 Luminescent cell viability assay reagent was purchased from Promega (Madison, WI). BCR-FGFR4 Ba/F3, BCR-FGFR1 Ba/F3 and FGFR3-BAIAP2L1 Ba/F3 cells were cultured in RPMI1640 media supplemented with 10% fetal bovine serum. Cultures were maintained at 37° C. in a humidified atmosphere of 5% CO2 and 95% air.
(§3) Cells were plated in 96-well clear bottom/white plates (Corning #3903) at 10,000 cells/well in 100 μl of media, incubated overnight. The next day, test compound DMSO stock solutions were made at 10 mM and 2 μM final concentration. Compounds were then added to cells in a 9-dose, 10-fold dilution series starting at 30 μM with an HP 300e Digital Dispenser (each dose was applied in triplicate). DMSO was backfilled to each well up to 301 nL total volume of test compound+DMSO, and a total of 301 nL DMSO was added to a control/no test compound well in triplicate. The cells in cell culture plates were incubated with the compounds at 37° C. and 5% CO2 for 48 hours. Then 50 μl of Cell Titer Glo 2.0 reagent was added to each well of the cell culture plates. The contents were covered from light and mixed on an orbital shaker at room temperature for 10 min. Luminescence was recorded by a Synergy H1 Microplate Reader (Biotek, Winooski, VT). Cells were assessed as a percentage of DMSO only treated control cells. Curves were plotted and IC50 values were calculated using the GraphPad Prism 8 program based on a sigmoidal dose-response equation (4 parameter).
In general terms: Cellular ATP, detected with luciferase, serves as a proxy for viable cell number.

The target of the next experiment is T2, FGFR3 (Homo sapiens, UniProt P22607).
T2 construct: made in house; host or cells: E. coli derived from BL21, infected with T7 phage
T2 sequence (P22607 23-806): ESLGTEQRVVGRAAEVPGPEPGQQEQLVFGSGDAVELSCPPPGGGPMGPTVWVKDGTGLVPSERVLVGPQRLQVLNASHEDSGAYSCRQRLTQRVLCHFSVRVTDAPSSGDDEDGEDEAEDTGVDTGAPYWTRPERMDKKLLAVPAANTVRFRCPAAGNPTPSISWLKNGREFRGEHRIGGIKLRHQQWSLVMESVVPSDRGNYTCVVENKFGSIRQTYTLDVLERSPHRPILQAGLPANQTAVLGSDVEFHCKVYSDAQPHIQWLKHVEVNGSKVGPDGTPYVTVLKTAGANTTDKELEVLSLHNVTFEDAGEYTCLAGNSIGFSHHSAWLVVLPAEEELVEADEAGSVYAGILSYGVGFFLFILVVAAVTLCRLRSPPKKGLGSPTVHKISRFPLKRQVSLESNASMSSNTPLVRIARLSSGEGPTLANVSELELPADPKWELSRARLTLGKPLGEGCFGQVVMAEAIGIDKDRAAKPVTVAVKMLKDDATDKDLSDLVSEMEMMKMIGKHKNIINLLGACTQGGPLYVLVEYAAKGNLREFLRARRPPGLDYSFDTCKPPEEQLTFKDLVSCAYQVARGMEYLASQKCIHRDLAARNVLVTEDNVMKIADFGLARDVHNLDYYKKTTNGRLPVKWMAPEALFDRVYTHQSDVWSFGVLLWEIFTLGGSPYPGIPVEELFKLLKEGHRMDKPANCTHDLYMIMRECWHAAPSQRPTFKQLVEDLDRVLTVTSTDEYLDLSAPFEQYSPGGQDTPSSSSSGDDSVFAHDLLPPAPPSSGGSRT
Nature of the experiment: Kinase binding assay (kinase-tagged T7 phage, qPCR), Kd. The note with it: read-out: FGFR3 (Kd nM). On the technique in general: In qPCR the cycle at which signal appears reflects the starting amount.

The target of a further experiment is T3, FGFR4 (Homo sapiens, UniProt P22455).
T3 construct: made in house; host or cells: E. coli derived from BL21, infected with T7 phage
T3 sequence (P22455 22-802): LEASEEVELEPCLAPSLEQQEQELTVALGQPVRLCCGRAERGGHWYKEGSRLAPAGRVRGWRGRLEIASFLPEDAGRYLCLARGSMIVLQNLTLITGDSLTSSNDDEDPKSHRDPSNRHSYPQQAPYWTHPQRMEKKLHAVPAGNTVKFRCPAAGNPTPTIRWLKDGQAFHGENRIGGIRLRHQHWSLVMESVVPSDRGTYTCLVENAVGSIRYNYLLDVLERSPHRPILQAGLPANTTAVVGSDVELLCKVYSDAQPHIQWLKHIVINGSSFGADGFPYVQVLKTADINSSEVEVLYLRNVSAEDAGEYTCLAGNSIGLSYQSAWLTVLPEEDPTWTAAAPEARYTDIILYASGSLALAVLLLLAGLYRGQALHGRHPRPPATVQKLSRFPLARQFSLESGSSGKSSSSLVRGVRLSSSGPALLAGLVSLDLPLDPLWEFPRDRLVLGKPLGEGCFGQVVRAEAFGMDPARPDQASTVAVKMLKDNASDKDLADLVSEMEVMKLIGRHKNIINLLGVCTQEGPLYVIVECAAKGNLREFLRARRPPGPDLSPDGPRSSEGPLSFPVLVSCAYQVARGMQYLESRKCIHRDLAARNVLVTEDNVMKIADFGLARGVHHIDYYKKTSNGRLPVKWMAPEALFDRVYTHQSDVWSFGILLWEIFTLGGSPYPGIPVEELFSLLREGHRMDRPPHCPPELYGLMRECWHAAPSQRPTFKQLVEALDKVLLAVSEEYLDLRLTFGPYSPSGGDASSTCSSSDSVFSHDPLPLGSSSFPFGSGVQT
Described as above. The note with it: read-out: FGFR4 (Kd nM).

The target in another experiment is T4, FGFR2 (Homo sapiens, UniProt P21802).
T4 construct: made in house; host or cells: E. coli derived from BL21, infected with T7 phage
T4 sequence (P21802 22-821): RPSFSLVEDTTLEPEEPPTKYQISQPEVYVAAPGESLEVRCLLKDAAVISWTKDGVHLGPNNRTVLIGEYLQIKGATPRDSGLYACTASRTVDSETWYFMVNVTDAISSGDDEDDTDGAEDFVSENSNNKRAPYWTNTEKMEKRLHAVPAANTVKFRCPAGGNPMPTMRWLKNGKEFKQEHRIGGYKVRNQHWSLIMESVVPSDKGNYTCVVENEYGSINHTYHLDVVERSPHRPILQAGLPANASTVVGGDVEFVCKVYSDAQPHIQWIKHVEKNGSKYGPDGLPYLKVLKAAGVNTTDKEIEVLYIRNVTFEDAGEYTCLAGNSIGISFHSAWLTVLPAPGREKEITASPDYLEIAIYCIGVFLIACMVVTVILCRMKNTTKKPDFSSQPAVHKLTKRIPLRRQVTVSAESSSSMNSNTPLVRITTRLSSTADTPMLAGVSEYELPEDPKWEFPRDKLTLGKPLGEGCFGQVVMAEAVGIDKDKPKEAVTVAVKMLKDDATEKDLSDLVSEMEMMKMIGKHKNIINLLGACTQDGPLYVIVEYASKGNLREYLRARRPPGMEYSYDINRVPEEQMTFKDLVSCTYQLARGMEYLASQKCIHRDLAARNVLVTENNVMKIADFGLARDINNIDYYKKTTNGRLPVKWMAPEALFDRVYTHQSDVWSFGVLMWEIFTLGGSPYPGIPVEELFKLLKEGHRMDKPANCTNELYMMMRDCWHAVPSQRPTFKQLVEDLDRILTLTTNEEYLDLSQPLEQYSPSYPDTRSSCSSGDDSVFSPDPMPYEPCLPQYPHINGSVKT
Described as above. The settings on record: read-out: FGFR2 (Kd nM).

The target of the next experiment is T5, FGFR1 (Homo sapiens, UniProt P11362).
T5 construct: made in house; host or cells: E. coli derived from BL21, infected with T7 phage
T5 sequence (P11362 22-822): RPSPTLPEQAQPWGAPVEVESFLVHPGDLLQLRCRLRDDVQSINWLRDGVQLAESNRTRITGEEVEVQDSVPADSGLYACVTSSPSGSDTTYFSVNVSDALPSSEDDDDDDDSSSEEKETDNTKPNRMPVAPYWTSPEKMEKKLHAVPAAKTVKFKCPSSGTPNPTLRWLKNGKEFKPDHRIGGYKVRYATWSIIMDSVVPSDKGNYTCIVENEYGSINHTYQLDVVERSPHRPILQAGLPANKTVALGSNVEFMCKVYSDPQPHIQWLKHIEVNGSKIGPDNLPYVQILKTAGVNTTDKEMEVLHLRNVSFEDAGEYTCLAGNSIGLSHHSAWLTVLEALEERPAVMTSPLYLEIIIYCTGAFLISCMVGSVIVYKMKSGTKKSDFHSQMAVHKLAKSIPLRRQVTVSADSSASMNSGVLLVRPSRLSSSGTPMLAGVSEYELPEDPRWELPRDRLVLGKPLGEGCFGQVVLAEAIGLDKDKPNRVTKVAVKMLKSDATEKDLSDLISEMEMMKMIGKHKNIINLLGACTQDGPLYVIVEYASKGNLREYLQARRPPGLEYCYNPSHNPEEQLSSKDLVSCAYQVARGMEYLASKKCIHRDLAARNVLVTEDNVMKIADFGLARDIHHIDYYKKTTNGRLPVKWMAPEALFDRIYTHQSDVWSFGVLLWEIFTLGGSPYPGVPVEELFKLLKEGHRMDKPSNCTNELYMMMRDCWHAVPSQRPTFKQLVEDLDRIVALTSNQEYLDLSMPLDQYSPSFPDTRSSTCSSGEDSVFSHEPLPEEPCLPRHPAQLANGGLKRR
The experiment is described as above. The note with it: read-out: FGFR1 (Kd nM).

The next experiment deals with T6, BCR-FGFR1 Ba/F3 (Homo sapiens, UniProt P11362).
T6 construct: host or cells: Ba/F3; the other entry of the earlier key: BCR (P11274, Breakpoint cluster region protein)
T6 sequence (P11362 478-767 limits assumed): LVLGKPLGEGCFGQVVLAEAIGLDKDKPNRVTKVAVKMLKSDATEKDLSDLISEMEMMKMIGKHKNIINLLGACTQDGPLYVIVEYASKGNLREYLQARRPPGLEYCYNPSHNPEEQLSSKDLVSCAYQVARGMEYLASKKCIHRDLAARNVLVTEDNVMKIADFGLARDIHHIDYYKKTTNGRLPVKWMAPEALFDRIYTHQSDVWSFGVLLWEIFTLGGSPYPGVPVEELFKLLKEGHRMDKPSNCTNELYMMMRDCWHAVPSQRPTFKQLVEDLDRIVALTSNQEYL
Nature of the experiment: Ba/F3 cell viability assay (CellTiter-Glo 2.0). Format: cell-based. The settings on record: Ba/F3 BCR-FGFR1 cells, 48 hours.
Source text: as §1, §2, §3

The structures appear in SMILES notation.

T1 sequence (P22607 397-758 limits assumed): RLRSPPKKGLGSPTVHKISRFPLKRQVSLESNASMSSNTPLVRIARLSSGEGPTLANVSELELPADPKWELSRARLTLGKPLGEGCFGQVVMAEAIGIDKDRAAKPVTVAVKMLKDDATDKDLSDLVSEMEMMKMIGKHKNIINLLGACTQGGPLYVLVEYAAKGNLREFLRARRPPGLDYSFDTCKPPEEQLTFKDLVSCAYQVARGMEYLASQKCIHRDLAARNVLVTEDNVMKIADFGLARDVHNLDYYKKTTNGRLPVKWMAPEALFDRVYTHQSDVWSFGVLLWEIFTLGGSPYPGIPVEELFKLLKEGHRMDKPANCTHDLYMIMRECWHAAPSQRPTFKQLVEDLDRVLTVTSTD

For the molecule `COc1c(F)cc(-c2n[nH]c3ccc(O[C@H](C)c4c(C)cnnc4C)cc23)cc1C#N` [Example 82, 5-[5-[(1R)-1-(3,5-dimethylpyridazin-4-yl)ethoxy]-1H-indazol-3-yl]-3-fluoro-2-methoxy-benzonitrile], at FGFR3-BAIAP2L1 Ba/F3, the IC50 (in general, the midpoint of a concentration-inhibition curve) fell in the range of 100 to 250 nM. For the same molecule, the Kd – broadly, the constant that tells how readily two partners part at equilibrium – is 0.1 to 100 nM at FGFR3, 0.1 to 100 nM on FGFR4, 100 to 250 nM at FGFR2 and 100 to 250 nM on FGFR1.

As for `Cc1ncc(Cl)c([C@@H](C)Oc2ccc3[nH]nc(-c4ccc(O[C@@H]5CCOC5)nc4)c3c2)c1Cl` [Example 147, 5-((R)-1-(3,5-Dichloro-2-methylpyridin-4-yl)ethoxy)-3-(6-(((R)-tetrahydrofuran-3-yl)oxy)pyridin-3-yl)-1H-indazole], the results for the IC50 on FGFR3-BAIAP2L1 Ba/F3 and at BCR-FGFR1 Ba/F3 were 100 to 250 nM and above 1000 nM, respectively. The Kd at FGFR3, at FGFR4, on FGFR2 and on FGFR1 was 0.1 to 100 nM throughout.

For `C[C@@H](Oc1ccc2[nH]nc(-c3cnc4c(c3)N(S(C)(=O)=O)CCO4)c2c1)c1c(Cl)cncc1Cl` [Example 137, 7-[5-[(1R)-1-(3,5-dichloro-4-pyridyl)ethoxy]-1H-indazol-3-yl]-1-methylsulfonyl-2,3-dihydropyrido[2,3-b][1,4]oxazine], the figures for the IC50 at FGFR3-BAIAP2L1 Ba/F3 and at BCR-FGFR1 Ba/F3 were 0.1 to 100 nM and 250 to 1000 nM, respectively. For the same molecule, the Kd was in the range of 0.1 to 100 nM at FGFR3, 0.1 to 100 nM at FGFR4, 100 to 250 nM at FGFR2 and 250 to 1000 nM at FGFR1.

With `C[C@@H](Oc1ccc2[nH]nc(-c3ccc4c(c3)C(=O)CC3(CCNCC3)O4)c2c1)c1c(Cl)cncc1Cl` [Example 92, (R)-6-(5-(1-(3,5-Dichloropyridin-4-yl)ethoxy)-1H-indazol-3-yl)spiro[chromane-2,4′-piperidin]-4-one], the results for the IC50 on FGFR3-BAIAP2L1 Ba/F3 and at BCR-FGFR1 Ba/F3 were 0.1 to 100 nM and 250 to 1000 nM, respectively. Besides, the Kd on FGFR3, on FGFR4, on FGFR2 and on FGFR1 was 0.1 to 100 nM each time.

Turning to `Cc1ncc(Cl)c([C@@H](C)Oc2ccc3[nH]nc(-c4ccc(N[C@@H]5CCOC5)nc4)c3c2)c1Cl` [Example 155, 5-(5-((R)-1-(3,5-Dichloro-2-methylpyridin-4-yl)ethoxy)-1H-indazol-3-yl)-N-((R)-tetrahydrofuran-3-yl)pyridin-2-amine], the values for the half-inhibitory concentration (IC50) on FGFR3-BAIAP2L1 Ba/F3 and on BCR-FGFR1 Ba/F3 were 0.1 to 100 nM and 100 to 250 nM, respectively. The Kd on FGFR3, on FGFR4, on FGFR2 and on FGFR1 was 0.1 to 100 nM each time.

For the molecule `Cc1cc(-c2n[nH]c3ccc(O[C@H](C)c4c(Cl)cncc4Cl)cc23)cnc1N[C@@H]1CCOC1` [Example 158, 5-(5-((R)-1-(3,5-dichloropyridin-4-yl)ethoxy)-1H-indazol-3-yl)-3-methyl-N-((R)-tetrahydrofuran-3-yl)pyridin-2-amine], the values for the IC50 at FGFR3-BAIAP2L1 Ba/F3 and on BCR-FGFR1 Ba/F3 were 0.1 to 100 nM and 250 to 1000 nM, respectively. The Kd on FGFR3 is 0.1 to 100 nM; at FGFR4, 0.1 to 100 nM; on FGFR2, 100 to 250 nM; at FGFR1, 0.1 to 100 nM.

For `C[C@@H](Oc1ccc2[nH]nc(-c3cnc4c(c3)N(CC(F)F)CCO4)c2c1)c1c(Cl)cncc1Cl` [Example 142, (R)-7-(5-(1-(3,5-dichloropyridin-4-yl)ethoxy)-1H-indazol-3-yl)-1-(2,2-difluoroethyl)-2,3-dihydro-1H-pyrido[2,3-b][1,4]oxazine], the Kd at FGFR3 was above 1000 nM; on FGFR4 it was 250 to 1000 nM; on FGFR2 it was above 1000 nM; at FGFR1, above 1000 nM.

For `COc1ncc(-c2n[nH]c3ccc(O[C@H](C)c4c(Cl)cncc4Cl)cc23)cc1NC(=O)N1CCN(C)CC1` [Example 7, (R)—N-(5-(5-(1-(3,5-Dichloropyridin-4-yl)ethoxy)-1H-indazol-3-yl)-2-methoxypyridin-3-yl)-4-methylpiperazine-1-carboxamide], the Kd on FGFR3 was 100 to 250 nM; on FGFR4, 0.1 to 100 nM; on FGFR2, above 1000 nM; on FGFR1, above 1000 nM.

As for `COc1cc(C#N)cc(-c2n[nH]c3cc(OC)c(O[C@@H](C)c4c(C)cnnc4C)cc23)c1` [Example 97, (S)-3-(5-(1-(3,5-dimethylpyridazin-4-yl)ethoxy)-6-methoxy-1H-indazol-3-yl)-5-methoxybenzonitrile], the Kd on FGFR3 was above 1000 nM; on FGFR4 it was 250 to 1000 nM; at FGFR2 it was above 1000 nM; on FGFR1, above 1000 nM.

In the case of `CCN1CCC(Oc2c(C)cc(-c3n[nH]c4ccc(O[C@H](C)c5c(C)cnnc5C)cc34)cc2C#N)CC1` [Example 115, (R)-5-(5-(1-(3,5-dimethylpyridazin-4-yl)ethoxy)-1H-indazol-3-yl)-2-((1-ethylpiperidin-4-yl)oxy)-3-methylbenzonitrile], the Kd on FGFR3, at FGFR4, at FGFR2 and on FGFR1 was 0.1 to 100 nM in each case.

In the case of `CCN1CCC2(CC1)CC(O)c1cc(-c3n[nH]c4ccc(O[C@H](C)c5c(C)cnnc5C)cc34)ccc1O2` (stereo partly drawn) [Example 107, 6-(5-((R)-1-(3,5-dimethylpyridazin-4-yl)ethoxy)-1H-indazol-3-yl)-1′-ethylspiro[chroman-2,4′-piperidin]-4-ol], the Kd at FGFR3, on FGFR4, at FGFR2 and on FGFR1 was 0.1 to 100 nM throughout.

As to `Cc1cc(-c2n[nH]c3ccc(O[C@H](C)c4c(C)cnnc4C)cc23)cc(C#N)c1F` [Example 77, 5-[5-[(1R)-1-(3,5-dimethylpyridazin-4-yl)ethoxy]-1H-indazol-3-yl]-2-fluoro-3-methyl-benzonitrile], the Kd on FGFR3 fell in the range of 0.1 to 100 nM; on FGFR4, 0.1 to 100 nM; on FGFR2, 100 to 250 nM; at FGFR1, 250 to 1000 nM.

`COc1ncc(-c2n[nH]c3ccc(O[C@H](C)c4c(Cl)cncc4Cl)cc23)cc1NC(=O)CCN(C)C` [Example 31, N-[5-[5-[(1R)-1-(3,5-dichloro-4-pyridyl)ethoxy]-1H-indazol-3-yl]-2-methoxy-3-pyridyl]-3-(dimethylamino)propanamido]: the dissociation constant (Kd) was 100 to 250 nM on FGFR3, 100 to 250 nM on FGFR4, above 1000 nM on FGFR2 and 250 to 1000 nM on FGFR1.

For the molecule `C[C@@H](Oc1ccc2[nH]nc(-c3cnc(N[C@@H]4CCOC4)c(C#N)c3)c2c1)c1c(Cl)cncc1Cl` [Example 130, 5-(5-((R)-1-(3,5-dichloropyridin-4-yl)ethoxy)-1H-indazol-3-yl)-2-(((R)-tetrahydrofuran-3-yl)amino)nicotinonitrile], the Kd on FGFR3, on FGFR4, at FGFR2 and on FGFR1 was 0.1 to 100 nM throughout.

For `C[C@@H](Oc1ccc2[nH]nc(-c3cnc(NC(=O)CN(C)C)c(F)c3)c2c1)c1c(Cl)cncc1Cl` [Example 22, N-[5-[5-[(1R)-1-(3,5-dichloro-4-pyridyl)ethoxy]-1H-indazol-3-yl]-3-fluoro-2-pyridyl]-2-(dimethylamino)acetamide], the Kd on FGFR3, at FGFR4, on FGFR2 and at FGFR1 was 0.1 to 100 nM each time.

As to `COc1cc(-c2n[nH]c3ccc(O[C@H](C)c4c(Cl)cncc4Cl)cc23)cc(C#N)c1OC1CCN(C(C)C)CC1` [Example 126, 5-[5-[(1R)-1-(3,5-dichloro-4-pyridyl)ethoxy]-1H-indazol-3-yl]-2-[(1-isopropyl-4-piperidyl)oxy]-3-methoxy-benzonitrile], the Kd was 250 to 1000 nM at FGFR3, 0.1 to 100 nM at FGFR4, above 1000 nM on FGFR2 and 250 to 1000 nM on FGFR1.

Turning to `CCOc1cc(-c2n[nH]c3ccc(O[C@H](C)c4c(Cl)cncc4Cl)cc23)cnc1N` [Example 33, 5-[5-[(1R)-1-(3,5-Dichloro-4-pyridyl)ethoxy]-1H-indazol-3-yl]-3-ethoxy-pyridin-2-amine], the Kd at FGFR3 was 250 to 1000 nM; on FGFR4, 0.1 to 100 nM; at FGFR2, above 1000 nM; on FGFR1 it was above 1000 nM.
